# In patent US20220259585A1, “METHODS OF MAKING AND UTILIZING AMBER-OBLIGATED PHAGE DISPLAY LIBRARIES” (The Texas A&M University System, priority 2019, published 2022):
# Numbered stars: 1 amine (or outer) side, 2 acyl side, 3 side chain; on linkers, the order of the positions; unused ones are H or OH. Square brackets hold non-standard residues; d marks the D form. Peptide text beside a SMILES is read from it. X1 = CCCC(=S)NCCCC[C@H](N[*:1])C(=O)[*:2]; Abu = CC[C@H](N)C(=O)O
# Key:
# [1] = tested on: MCF-7 cells; experiment: Western blot of α-tubulin K40 acetylation in MCF-7 cells (SIRT2 inhibition in cells); assay type: cell-based, human; details: 24 hours; for increase in acetylation level compared to S2P04 in vivo (in cells): cell line not given, cell cultures 50 μM; for α-tubulin acetylation (lysine 40): MCF-7 cells, 50 μM, versus vehicle control (0.25% DMF)
# Experimental: (§1) Finally, Applicant tested the ability of S2P04, a selected peptide with intermediate potency, to inhibit SIRT2 in human embryonic kidney (HEK 293T) and breast cancer cells (MCF-7). […] Following incubation with the inhibitor, Applicant measured the acetylation level of lysine 40 of α-tubulin, a known deacetylation substrate of SIRT2.
# MCF-7 (HTB-22) and HEK 293T (CRL-11268) cells purchased from American Type Culture Collection were grown in Dulbecco's Modified Eagle Medium (Invitrogen) containing 10% fetal bovine serum (Invitrogen) at 37° C. in an atmosphere of 5% CO2. Cells were seeded in a 6-well plate (Falcon 353046) at 5×10^5 viable cells/well, and grown for 24-48 hours to 60-70% confluence. […] After incubating with the inhibitors for 24 hours, the media was removed and the cells were washed twice with ice-cold PBS (Invitrogen). Cells were lysed on ice for 30 minutes in 100 μL of buffer containing 25 mM Tris pH 7.4, 150 mM NaCl, 10% glycerol, 4 mM MgCl2, 0.2 mM DTT, 1% NP-40, 25 mM nicotinamide, 5 μM trichostatin A, and 1:100 dilution of protease inhibitor cocktail (Sigma-Aldrich). The lysates were clarified by centrifugation, quantified by BCA assay (Pierce), and aliquots were stored at −80° C. Cell lysates (15 or 20 μg) were resolved by SDS-PAGE under denaturing conditions on a 12% acrylamide gel and then transferred to a 0.2 μm nitrocellulose membrane (Bio-Rad). α-tubulin acetylation (K40) and total α-tubulin were probed with primary antibody clones 6-11B-1, and B-5-1-2, respectively, which were purchased from Sigma-Aldrich (1:2,000 dilution). Primary antibodies were probed with HRP-conjugated goat anti-mouse IgG (Jackson ImmunoResearch Laboratories, Inc., 1:10,000 dilution). Chemiluminescence signals were generated with the SuperSignal™ […] Chemiluminescent substrate (ThermoFisher Scientific) and visualized with a Bio-Rad ChemiDoc XRS+ imaging system.
# [2] = biological target: T1, SIRT2 (Homo sapiens, UniProt Q8IXJ6); experiment: Sirtuin inhibition assay with fluorogenic universal sirtuin substrate (SIRT2); assay type: biochemical; details: for IC50: inhibition of SIRT2, mean ± standard deviation of two independent experiments
# T1 sequence (Q8IXJ6 1-389): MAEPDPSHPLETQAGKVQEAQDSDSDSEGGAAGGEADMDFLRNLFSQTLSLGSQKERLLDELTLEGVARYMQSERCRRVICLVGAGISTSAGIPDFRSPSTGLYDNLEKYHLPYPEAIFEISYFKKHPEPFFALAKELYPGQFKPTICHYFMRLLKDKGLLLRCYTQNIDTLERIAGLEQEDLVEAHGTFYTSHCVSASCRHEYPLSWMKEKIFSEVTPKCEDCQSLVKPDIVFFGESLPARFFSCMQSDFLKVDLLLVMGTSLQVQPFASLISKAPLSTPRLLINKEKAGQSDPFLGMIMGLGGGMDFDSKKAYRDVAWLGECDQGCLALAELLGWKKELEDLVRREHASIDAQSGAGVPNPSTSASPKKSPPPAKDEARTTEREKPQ
# Experimental: For inhibition assays, the eluted protein was loaded onto a HiPrep 26/10 desalting column (GE Healthcare) that had been pre-equilibrated with Source 15Q buffer A (20 mM Tris pH 8.0, 50 mM NaCl, 0.2 mM DTT, 10% glycerol). The desalted protein was concentrated by ultrafiltration to 1 mL (10 kDa MWCO) and applied to a 10 mL Source 15Q column (GE Healthcare) pre-equilibrated with Source 15Q buffer A. The column was washed with 3 CV (2 mL·min^−1) of Source 15Q buffer A and then eluted with a linear gradient from 0-60% Source 15Q buffer B (20 mM Tris pH 8.0, 1 M NaCl, 0.2 mM DTT, 10% glycerol; 1 mL·min^−1) over 5 CV. The fractions containing pure SIRT2 were concentrated and stored at −80° C. Enzyme concentration was determined from the absorbance at 280 nm using the calculated extinction coefficient of 32,470 M^−1·cm^−1.
# Inhibition assays for SIRT1-3 were performed using a recently reported fluorogenic, universal sirtuin substrate (JPT Peptide Technologies, GmbH). The inhibition reactions were performed in 50 μL volumes at 37° C. in black, half-area, 96-well plates. The sirtuin enzyme (0.25 μM) was pre-incubated with different concentrations of the synthetic peptides (0.0064-50 μM for SIRT1 and SIRT2, 0.5-100 μM for SIRT3) or TB (0.16-150 μM for SIRT1-3) and 1 mM NAD^+ in assay buffer (20 mM Tris pH 7.8, 150 mM NaCl, 5 mM MgCl2, 1 mM DTT) for 15 minutes. Following incubation, the reaction was started with the addition of the substrate (5 μM) and product formation was monitored by measuring the fluorescence intensity every 20 seconds for 5 minutes (SIRT2) or 30 minutes (SIRT1 and SIRT3) in a BioTek Synergy H1 microplate reader at λEx=320 nm, λEm=408 nm (gain=130, read height=7 mm). Initial rates of product formation were determined by linear regression of the plot of fluorescence intensity versus time and normalized relative to 0% activity (max inhibitor) and 100% activity (no inhibitor) controls. IC50 values were determined by nonlinear regression of the plot of normalized initial rate versus inhibitor concentration using GraphPad Prism.
# [3] = biological target: T2, SIRT3 (Homo sapiens, UniProt Q9NTG7); experiment: Sirtuin inhibition assay with fluorogenic universal sirtuin substrate (SIRT3); assay type: biochemical; details: selectivity SIRT2 over SIRT3
# T2 sequence (Q9NTG7 1-399): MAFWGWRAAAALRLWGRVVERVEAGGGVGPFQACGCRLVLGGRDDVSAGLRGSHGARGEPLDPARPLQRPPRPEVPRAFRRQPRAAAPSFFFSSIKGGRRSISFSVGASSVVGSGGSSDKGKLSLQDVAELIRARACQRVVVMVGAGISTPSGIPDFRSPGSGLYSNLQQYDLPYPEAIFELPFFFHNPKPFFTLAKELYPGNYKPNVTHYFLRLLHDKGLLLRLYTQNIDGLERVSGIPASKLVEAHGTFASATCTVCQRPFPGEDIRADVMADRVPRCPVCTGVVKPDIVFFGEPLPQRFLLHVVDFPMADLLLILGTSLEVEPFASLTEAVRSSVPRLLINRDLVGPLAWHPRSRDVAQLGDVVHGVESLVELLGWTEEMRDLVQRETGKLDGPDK
# Experimental: Cell pellets were resuspended in 50 mL of lysis buffer (50 mM Tris pH 7.4, 150 mM NaCl, 0.1 mM PMSF, 1% Triton X-100) and incubated in the presence of 1 mg·mL^−1 of lysozyme for 30 minutes on ice. Following incubation, the resuspension was sonicated twice (1 s on 1 s off, 1 min total, 60% output) and clarified by centrifugation. To the clarified supernatant was added 3 mL of a 50% slurry of immobilized glutathione resin (Genscript) and the mixture was incubated at 4° C. for 30 minutes with end-over-end rotation. After 30 minutes the mixture was filtered through a disposable column, and the resin was washed with 50 mL of lysis buffer containing 0.1% Triton X-100. […] Enzyme concentration was determined from the absorbance at 280 nm using the calculated extinction coefficient of 80,790 M^−1·cm^−1.
# Inhibition assays for SIRT1-3 were performed using a recently reported fluorogenic, universal sirtuin substrate (JPT Peptide Technologies, GmbH). […] Following incubation, the reaction was started with the addition of the substrate (5 μM) and product formation was monitored by measuring the fluorescence intensity every 20 seconds for 5 minutes (SIRT2) or 30 minutes (SIRT1 and SIRT3) in a BioTek Synergy H1 microplate reader at λEx=320 nm, λEm=408 nm (gain=130, read height=7 mm). […]
# [4] = tested on: HEK 293T cells; experiment: Western blot of α-tubulin K40 acetylation in HEK 293T cells (SIRT2 inhibition in cells); assay type: cell-based, human; details: 50 μM, 24 hours, versus vehicle control (0.25% DMF)
# Experimental: as §1
# MCF-7 (HTB-22) and HEK 293T (CRL-11268) cells purchased from American Type Culture Collection were grown in Dulbecco's Modified Eagle Medium (Invitrogen) containing 10% fetal bovine serum (Invitrogen) at 37° C. in an atmosphere of 5% CO2. Cells were seeded in a 6-well plate (Falcon 353046) at 5×10^5 viable cells/well, and grown for 24-48 hours to 60-70% confluence. […] After incubating with the inhibitors for 24 hours, the media was removed and the cells were washed twice with ice-cold PBS (Invitrogen). Cells were lysed on ice for 30 minutes in 100 μL of buffer containing 25 mM Tris pH 7.4, 150 mM NaCl, 10% glycerol, 4 mM MgCl2, 0.2 mM DTT, 1% NP-40, 25 mM nicotinamide, 5 μM trichostatin A, and 1:100 dilution of protease inhibitor cocktail (Sigma-Aldrich). The lysates were clarified by centrifugation, quantified by BCA assay (Pierce), and aliquots were stored at −80° C. […]
# [5] = biological target: T3, SIRT1 (Homo sapiens, UniProt Q96EB6); experiment: Sirtuin inhibition assay with fluorogenic universal sirtuin substrate (SIRT1); assay type: biochemical; details: selectivity SIRT2 over SIRT1
# T3 sequence (Q96EB6 1-747): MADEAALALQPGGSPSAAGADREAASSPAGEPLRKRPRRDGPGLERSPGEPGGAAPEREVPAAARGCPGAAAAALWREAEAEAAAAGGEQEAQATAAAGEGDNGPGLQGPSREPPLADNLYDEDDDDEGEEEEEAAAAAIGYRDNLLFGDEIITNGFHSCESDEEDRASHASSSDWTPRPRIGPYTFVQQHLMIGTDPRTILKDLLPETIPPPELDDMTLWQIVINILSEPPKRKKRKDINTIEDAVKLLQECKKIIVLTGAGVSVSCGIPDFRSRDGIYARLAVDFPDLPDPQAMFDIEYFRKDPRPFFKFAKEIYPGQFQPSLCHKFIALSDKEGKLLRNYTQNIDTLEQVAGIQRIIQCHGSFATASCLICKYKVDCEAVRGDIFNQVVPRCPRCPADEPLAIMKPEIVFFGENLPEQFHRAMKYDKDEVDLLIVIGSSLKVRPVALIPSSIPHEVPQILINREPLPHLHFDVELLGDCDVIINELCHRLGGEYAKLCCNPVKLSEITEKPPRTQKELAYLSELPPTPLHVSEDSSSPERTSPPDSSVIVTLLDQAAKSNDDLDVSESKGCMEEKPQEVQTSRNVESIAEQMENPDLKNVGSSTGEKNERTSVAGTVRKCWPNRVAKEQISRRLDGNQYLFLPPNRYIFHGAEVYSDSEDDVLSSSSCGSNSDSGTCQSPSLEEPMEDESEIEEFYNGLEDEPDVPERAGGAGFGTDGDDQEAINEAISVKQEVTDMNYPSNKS
# Experimental: Cell pellets were resuspended in 50 mL of lysis buffer (50 mM Tris pH 8.0, 250 mM NaCl, 10 mM imidazole, 0.1 mM phenylmethanesulfonyl fluoride (PMSF), 1% Triton X-100) and incubated with 1 mg·mL^−1 lysozyme (chicken egg white) for 30 minutes on ice. Following incubation, the resuspension was sonicated twice (1 s on, 1 s off, 1 min total, 60% output) and clarified by centrifugation. […] After 30 minutes, the mixture was filtered through a disposable column and the resin was washed with 40 mL of lysis buffer containing 0.1% Triton X-100, followed by 40 mL of lysis buffer without Triton X-100. […] Enzyme concentration was determined from the absorbance at 280 nm using the calculated extinction coefficient of 40,340 M^−1·cm^−1.
# Inhibition assays for SIRT1-3 were performed using a recently reported fluorogenic, universal sirtuin substrate (JPT Peptide Technologies, GmbH). […] Following incubation, the reaction was started with the addition of the substrate (5 μM) and product formation was monitored by measuring the fluorescence intensity every 20 seconds for 5 minutes (SIRT2) or 30 minutes (SIRT1 and SIRT3) in a BioTek Synergy H1 microplate reader at λEx=320 nm, λEm=408 nm (gain=130, read height=7 mm). […] IC50 values were determined by nonlinear regression of the plot of normalized initial rate versus inhibitor concentration using GraphPad Prism.
Structure (SMILES),increase in acetylation level compared to S2P04 in vivo (in cells) [1],α-tubulin acetylation (lysine 40) [4],α-tubulin acetylation (lysine 40) [1],IC50 [2],also measured
"CCCC(=S)NCCCC[C@H](NC(=O)[C@@H](NC(=O)[C@@H](NC(=O)[C@H](CS)NC(C)=O)[C@@H](C)O)C(C)C)C(=O)N[C@H](C(N)=O)[C@@H](C)CC [Ac-S2P04-5, Ac-CTVXI-NH2] (Ac-CTV[X1]I-NH2)",neither led to a greater increase in acetylation level compared to S2P04,–,–,–,–
"CCCC(=S)NCCCC[C@H](NC(=O)[C@@H](NC(=O)[C@@H](NC(=O)[C@H](CS)NC(=O)[C@@H](N)[C@@H](C)O)[C@@H](C)O)C(C)C)C(=O)N[C@H](C(=O)NCC(N)=O)[C@@H](C)CC [Compound S2P04, NH2-TCTVXIG-NH2] (H-TCTV[X1]IG-NH2)",–,increase in α-tubulin acetylation,increase in α-tubulin acetylation,–,"fold more potent than TB ([2]; for each enzyme (SIRT1, SIRT2, SIRT3)): at least 33 fold; fold more potent inhibition of SIRT2 than SIRT3 [3]: 152 fold; fold more potent inhibition of SIRT2 than SIRT1 [5]: 2.7 fold"
CCCC(=S)NCCCC[C@H](NC(=O)[C@@H](NC(=O)[C@@H](NC(=O)[C@@H](N)CS)[C@@H](C)O)C(C)C)C(=O)N[C@H](C(N)=O)[C@@H](C)CC [Compound S2P04-5] (H-CTV[X1]I-NH2; N-terminus and C-terminus assumed),–,–,–,136 ± 29 nM,–
"CCCC(=S)NCCCC[C@H](NC(=O)[C@@H](NC(=O)[C@@H](NC(=O)[C@@H](N)CC)[C@@H](C)O)C(C)C)C(=O)N[C@H](C(N)=O)[C@@H](C)CC [S2P04(Abu)-5, NH2-ZTVXI-NH2] (H-[Abu]TV[X1]I-NH2)",neither led to a greater increase in acetylation level compared to S2P04,–,–,–,–
"CCCC(=S)NCCCC[C@H](NC(=O)OCc1ccccc1)C(=O)Nc1ccccc1 [TB, reference compound]",–,No increase in α-tubulin acetylation,increase in α-tubulin acetylation compared to the control,3110 nM,–
